IC50 data for 20 compounds are collected here from patent US11919902B2, “Aryl-bipyridine amine derivatives as phosphatidylinositol phosphate kinase inhibitors” (HiberCell, Inc., priority 2017, dated 2024).

Assay [1] concerns the target T1, PIP4K2A (full length protein, SignalChem) (Homo sapiens, UniProt P48426).
T1 construct: 4 nM PIP4K2A (full length protein, SignalChem); purchased SignalChem
T1 sequence (P48426 1-406): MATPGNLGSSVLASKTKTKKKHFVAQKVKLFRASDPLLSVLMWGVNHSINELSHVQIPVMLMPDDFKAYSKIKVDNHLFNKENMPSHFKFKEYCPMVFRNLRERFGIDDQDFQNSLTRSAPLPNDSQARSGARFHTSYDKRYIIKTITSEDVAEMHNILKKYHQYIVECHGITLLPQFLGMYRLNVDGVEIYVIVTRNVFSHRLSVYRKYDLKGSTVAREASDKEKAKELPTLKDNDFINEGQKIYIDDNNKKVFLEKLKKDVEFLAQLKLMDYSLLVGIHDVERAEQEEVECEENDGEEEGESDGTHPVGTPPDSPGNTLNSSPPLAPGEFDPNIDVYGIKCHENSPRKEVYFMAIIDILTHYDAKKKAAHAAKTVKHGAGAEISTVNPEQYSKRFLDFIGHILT
The assay can be described thus: Kinase Assay PIP4K2 A (Sprint); ADP-Glo biochemical assay. Conditions: Table 2; compounds listed under IC50 range headings. Summed up:
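ADP-Glo luminescence detected ADP after a 1 h RT reaction started with 60 μM ATP solution. Before that, full-length PIP4K2A (4 nM in mix) with 100 μM PI(5)P diC8 was pre-incubated 15 min with compounds in MOPS buffer pH 7.2, 25 mM MgCl2, 0.005% Tween 20. IC50 derived from % inhibition relative to DMSO over 10 three-fold concentrations.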
(ADP-Glo first removes unused ATP, then detects ADP through luciferase.)

For assay [2], the target named is T2, GST tagged PIP4KtypeIIA (Homo sapiens, UniProt P48426).
T2 construct: made in house; host or cells: E. coli
T2 sequence (P48426 1-406): T1 sequence (P48426 1-406)
The assay can be described thus: ADP-glo kinase assay PIP4K 2A (PIP4KtypeIIA inhibition assay). The note with it: Table 3; compounds listed under IC50 range headings; 10 uM ATP, 0.5 nM PIP4KIIA. It counts as biochemical. In short, it runs like this: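 Read-out was ADP-Glo luminescence converted to μM ADP, with IC50 plotted as % of no-inhibitor activity against log concentration. Reactions contained 10 μM ATP, 80 μM PI5P with DOPE carrier, and 0.5 nM GST-tagged PIP4KIIA (E. coli-expressed) in pH 7.3 HEPES/MgCl2 buffer with 5% DMSO. Enzyme and compound (≤4.8 μM) were preincubated 1 h at 27 °C before the 1 h reaction.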

The target of assay [3] is T3, GST tagged PIP4KtypeIIB (Homo sapiens, UniProt P78356).
T3 construct: made in house; host or cells: E. coli
T3 sequence (P78356 1-416): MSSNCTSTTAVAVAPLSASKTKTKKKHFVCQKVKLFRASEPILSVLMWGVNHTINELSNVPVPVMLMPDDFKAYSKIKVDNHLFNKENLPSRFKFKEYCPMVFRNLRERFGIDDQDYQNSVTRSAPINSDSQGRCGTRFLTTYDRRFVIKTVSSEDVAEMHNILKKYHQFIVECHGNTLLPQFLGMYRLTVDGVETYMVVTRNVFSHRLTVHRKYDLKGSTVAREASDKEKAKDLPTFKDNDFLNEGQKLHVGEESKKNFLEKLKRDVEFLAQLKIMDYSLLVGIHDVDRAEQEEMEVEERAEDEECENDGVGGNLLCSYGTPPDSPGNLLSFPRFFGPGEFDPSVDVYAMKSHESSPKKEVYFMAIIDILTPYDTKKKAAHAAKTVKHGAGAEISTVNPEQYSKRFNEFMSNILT
The experiment in a line: Trans-FI P kinase assay PIP4K2B (PIP4KtypeIIB inhibition assay). It counts as biochemical. Conditions: Table 4; compounds listed under IC50 range headings; 100 uM GTP, 5 nM PIP4KIIB; read-out: Trans-FI P kinase assays: PIP4K2B IC50. Summed up:
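Transcreener FI fluorescence, converted to GDP by calibration, tracked product from 5 nM E. coli-expressed GST-PIP4KIIB acting on 80 uM PI5P (DOPE carrier) with 100 uM GTP. Compound (top 4.8 uM final, 5% DMSO) was preincubated 1 h at 27 C before the 2 h reaction; IC50 fitted from residual activity.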

Molecules are shown by their SMILES.

For `O=C1CCCN1c1ccc(-c2cncc(-c3cn(Cc4ccccc4)c(=O)c4[nH]ncc34)c2)cc1` [Example 67, 6-benzyl-4-(5-(4-(2-oxopyrrolidin-1-yl)phenyl)pyridin-3-yl)-1,6-dihydro-7H-pyrazolo[3,4-c]pyridin-7-one], the concentration for half-maximal inhibition (IC50) in assay [1] lay within 5 to 100 nM; in assay [2], 100 to 1000 nM; in assay [3] it was 100 to 1000 nM.

For the compound `Nc1ncc(-c2ccnc3oc(C(=O)NCC4CC4)cc23)cc1-c1ccc(N2CCCC2=O)cc1` [Example 89, 4-(6-amino-5-(4-(2-oxopyrrolidin-1-yl)phenyl)pyridin-3-yl)-N-(cyclopropylmethyl)furo[2,3-b]pyridine-2-carboxamide], the half-maximal inhibitory concentration (IC50) lay within 1 to 5 nM in assay [1], 1 to 10 nM in assay [2] and 1 to 10 nM in assay [3].

Turning to `COc1ncc(-c2cncc(-c3ccc(N4CCCC4=O)cc3)c2)c2cn(C)nc12` [Example 157, 1-[4-[5-(7-methoxy-2-methyl-pyrazolo[3,4-c]pyridin-4-yl)-3-pyridyl]phenyl]pyrrolidin-2-one], the IC50 in assay [1], in assay [2] and in assay [3] was 100 to 1000 nM in each case.

With `CN(C)C/C=C/C(=O)Nc1cccc(CCC(=O)NCc2cc(-c3cnc(N)c(-c4ccc(C(=O)N(C)C)cn4)c3)ccn2)c1` [Example 195, (E)-2′-amino-2″-((3-(3-(4-(dimethylamino)but-2-enamido)phenyl)propanamido)methyl)-N,N-dimethyl-[2,3′:5′,4″-terpyridine]-5-carboxamide], the IC50 in assay [1] was under 5000 nM; in assay [2], over 5000 nM; in assay [3], 2500 to 5000 nM.

With `CN1CCn2c(cc3c(-c4cncc(-c5ccc(N6CCCC6=O)cc5)c4)ccnc32)C1=O` [Example 46, 7-methyl-4-(5-(4-(2-oxopyrrolidin-1-yl)phenyl)pyridin-3-yl)-8,9-dihydropyrido[3′,2′:4,5]pyrrolo[1,2-a]pyrazin-6(7H)-one], the 50% inhibitory concentration (IC50) in assay [1] is 5 to 100 nM; in assay [2], 100 to 1000 nM; in assay [3], 10 to 100 nM.

In the case of `Cc1cc(N2CCCC2=O)ccc1-c1cncc(-c2cn(C)c3ncc(C(C)(C)O)cc23)c1` [Example 168, 1-(4-(5-(5-(2-hydroxypropan-2-yl)-1-methyl-1H-pyrrolo[2,3-b]pyridin-3-yl)pyridin-3-yl)-3-methylphenyl)pyrrolidin-2-one], the IC50 in assay [1] fell in the range of 100 to 1000 nM; in assay [2] it was 2500 to 5000 nM; in assay [3] it was 2500 to 5000 nM.

For the compound `Cn1cc(-c2cnc(N)c(-c3ccc(N4CCCC4=O)cc3)c2)c2cc(N3CCCC3=O)cnc21` [Example 91, 1-(4-(2-amino-5-(1-methyl-5-(2-oxopyrrolidin-1-yl)-1H-pyrrolo[2,3-b]pyridin-3-yl)pyridin-3-yl)phenyl)pyrrolidin-2-one], the IC50 in assay [1] is 5 to 100 nM; in assay [2], 100 to 1000 nM; in assay [3], 10 to 100 nM.

In the case of `O=C1CCCN1c1ccc(-c2cncc(-c3ccnc4c3cnn4CCO)c2)cc1` [Example 44, 1-(4-(5-(1-(2-hydroxyethyl)-1H-pyrazolo[3,4-b]pyridin-4-yl)pyridin-3-yl)phenyl)pyrrolidin-2-one], the IC50 in assay [1], in assay [2] and in assay [3] was 100 to 1000 nM in each case.

Consider `COCCNC(=O)c1cc2c(-c3cnc(N)c(-c4ccc(C(=O)N(C)C)cn4)c3)ccnc2[nH]1` [Example 132, 4-(2′-amino-5-(dimethylcarbamoyl)-[2,3′-bipyridin]-5′-yl)-N-(2-methoxyethyl)-1H-pyrrolo[2,3-b]pyridine-2-carboxamide], for which the concentration for half-maximal inhibition (IC50) in assay [1] fell in the range of 100 to 1000 nM; in assay [2] it was 100 to 1000 nM; in assay [3], 10 to 100 nM.

`CNC(=O)c1cc2c(-c3cncc(-c4ccc(N5CCCC5=O)cc4)c3)ccnc2o1` [Example 49, N-methyl-4-(5-(4-(2-oxopyrrolidin-1-yl)phenyl)pyridin-3-yl)furo[2,3-b]pyridine-2-carboxamide]: the figures for the half-inhibitory concentration (IC50) in assay [1], in assay [2] and in assay [3] were 5 to 100 nM, 10 to 100 nM and 10 to 100 nM, respectively.

For `COCCNC(=O)c1cc2c(-c3cncc(-c4ccc(N5CCCC5=O)cc4)c3)ccnc2o1` [Example 80, N-(2-methoxyethyl)-4-(5-(4-(2-oxopyrrolidin-1-yl)phenyl)pyridin-3-yl)furo[2,3-b]pyridine-2-carboxamide], the IC50 is 5 to 100 nM in assay [1], 100 to 1000 nM in assay [2] and 10 to 100 nM in assay [3].

As for `Cn1ncc2c(-c3cncc(-c4ccc(N5CCCC5=O)cc4)c3)cn(CC#N)c(=O)c21` [Example 160, 2-(1-methyl-7-oxo-4-(5-(4-(2-oxopyrrolidin-1-yl)phenyl)pyridin-3-yl)-1,7-dihydro-6H-pyrazolo[3,4-c]pyridin-6-yl)acetonitrile], the IC50 in assay [1], in assay [2] and in assay [3] was 100 to 1000 nM each time.

With `CC(C)OC(=O)c1cc2c(-c3cncc(-c4ccc(N5CCCC5=O)cc4)c3)ccnc2o1` [Example 167, isopropyl 4-(5-(4-(2-oxopyrrolidin-1-yl)phenyl)pyridin-3-yl)furo[2,3-b]pyridine-2-carboxylate], the figures for the IC50 in assay [1], in assay [2] and in assay [3] were 5 to 100 nM, 10 to 100 nM and 10 to 100 nM, respectively.

As for `CN(C)C(=O)c1cnc2c(c1)c(-c1cncc(-c3ccc(N4CCCC4=O)cc3)c1)cn2C` [Example 61, N,N,1-trimethyl-3-(5-(4-(2-oxopyrrolidin-1-yl)phenyl)pyridin-3-yl)-1H-pyrrolo[2,3-b]pyridine-5-carboxamide], the IC50 lay in the range of 5 to 100 nM in assay [1], 100 to 1000 nM in assay [2] and 100 to 1000 nM in assay [3].

Take `CN(C)C(=O)c1ccc(-c2cc(-c3ccnc(CNC(=O)c4ccc(NC(=O)OC(C)(C)C)cc4)c3)cnc2N)nc1` [Example 187, tert-butyl(4-(((2′-amino-5-(dimethylcarbamoyl)-[2,3′:5′,4″-terpyridin]-2″-yl)methyl)carbamoyl)phenyl)carbamate]: the IC50 in assay [1] was 2500 to 5000 nM; in assay [2], over 5000 nM; in assay [3], over 5000 nM.

Regarding `CC(C)OC(=O)c1cc2c(-c3cncc(-c4ccc(N5CCCC5=O)cc4)c3)ccnc2[nH]1` [Example 161, isopropyl 4-(5-(4-(2-oxopyrrolidin-1-yl)phenyl)pyridin-3-yl)-1H-pyrrolo[2,3-b]pyridine-2-carboxylate], the IC50 in assay [1] was 5 to 100 nM; in assay [2] it was 100 to 1000 nM; in assay [3], 10 to 100 nM.

Turning to `COc1cc(-c2cncc(-c3ccc(N4CCCC4=O)cc3)c2)c2c[nH]nc2n1` [Example 257, 1-(4-(5-(6-methoxy-2H-pyrazolo[3,4-b]pyridin-4-yl)pyridin-3-yl)phenyl)pyrrolidin-2-one], the 50% inhibitory concentration (IC50) in assay [1], in assay [2] and in assay [3] was 100 to 1000 nM each time.

As for `Cc1[nH]c2ncc(C(=O)N(C)C)cc2c1-c1cncc(-c2ccc(N3CCCC3=O)cc2)c1` [Example 250, N,N,2-trimethyl-3-(5-(4-(2-oxopyrrolidin-1-yl)phenyl)pyridin-3-yl)-1H-pyrrolo[2,3-b]pyridine-5-carboxamide], the 50% inhibitory concentration (IC50) in assay [1] is 5 to 100 nM; in assay [2] it was 100 to 1000 nM; in assay [3], 100 to 1000 nM.

Take `Cc1ncc(-c2ccncc2)cc1-c1ccc(N2CCCC2=O)cc1` [Example 164, 1-(4-(6-methyl-3,4′-bipyridin-5-yl)phenyl)pyrrolidin-2-one]: the 50% inhibitory concentration (IC50) in assay [1] is 2500 to 5000 nM; in assay [2], over 5000 nM; in assay [3], 2500 to 5000 nM.

As for `CN(C)C(=O)c1ccc(-c2cc(-c3ccnc4[nH]c(C(=O)N(C)C)cc34)cnc2N)nc1` [Example 127, 4-(2′-amino-5-(dimethylcarbamoyl)-[2,3′-bipyridin]-5′-yl)-N,N-dimethyl-1H-pyrrolo[2,3-b]pyridine-2-carboxamide], the half-maximal inhibitory concentration (IC50) in assay [1] fell in the range of 5 to 100 nM; in assay [2] it was 100 to 1000 nM; in assay [3], 10 to 100 nM.

In general, IC50 refers to the concentration that gives 50% inhibition.
